Data on 1 molecule can be found in article PMC3702004, “Comparison of Intake and Systemic Relative Effect Potencies of Dioxin-like Compounds in Female Mice after a Single Oral Dose” (Environmental Health Perspectives, 2013).

The test system of the data set is Cyp1b1 mRNA. In words: Cyp1b1 gene expression in liver (real-time PCR). In kind it is in vivo, female C57BL/6 mice. The conditions noted are these: female, C57BL/6, mouse, in vivo; single oral dose, day 3; read-out: Maximum induction of hepatic Cyp1b1 mRNA, of the maximal response of TCDD. On the procedure:
Animals. Eight-week-old female C57BL/6 mice (Harlan laboratories, Venray, the Netherlands) were randomly assigned to treatment groups (six animals per group) and allowed to acclimate for 1.5 weeks. The animals were housed in groups in standard cages and conditions (23 ± 2°C, 50–60% relative humidity, 12-hr dark/light cycle) with free access to food and water. Mice received a single dose of test compound by oral gavage at a dosing volume of 10 mL/kg body weight (BW). Mice treated with corn oil vehicle (10 mL/kg BW) served as controls. For each congener, five different doses were administered, ranging from 0.5–100 μg/kg BW (TCDD) to 5,000–500,000 µg/kg BW (PCB-153). Detailed information on doses is provided in Supplemental Material, Table S1 (http://dx.doi.org/10.1289/ehp.1206336). On day 3 after dosing, animals were euthanized by CO2/O2 asphyxiation, and blood was immediately collected from the abdominal aorta. The liver, thymus, spleen, and adipose tissue were removed, weighed (liver, thymus, and spleen), snap frozen, and stored at –80°C. All animal treatments were performed with permission of the Animal Ethical Committee (DEC Utrecht) and performed according to the [Law on Animal Experiments (1977)]. Animals were treated humanely and with regard for alleviation of suffering.
RNA isolation and quantitative real-time polymerase chain reaction (PCR). Total RNA was isolated from liver and PBLs using a QIAGEN RNeasy kit (QIAGEN). Purity and concentration of the isolated RNA was determined by measuring the absorbance ratio at 260/280 nm and 230/260 nm with a Nanodrop 2000 spectrophotometer (Thermo Scientific, Asheville, NC, USA). RNA was reverse transcribed to complementary DNA (cDNA) using the iScript cDNA synthesis Kit (Bio-Rad, Veenendaal, the Netherlands). Quantitative real-time PCR analyses were performed using the iQ Real-Time PCR Detection System with SYBR green (Bio-Rad). Amplification reactions were set up with […] containing 12.5 μL iQ SYBR Green Supermix (Bio-rad), 0.5 μL distilled H2O, 1 μL (10 μM) forward primer, 1 μL (10 μM) reverse primer, and 10 μL first strand cDNA (10X diluted). Primer sequences were as follows: Cyp1a1: forward-5´-GGTTAACCATGACCGGGAACT-3´ and reverse-5´-TGCCCAAACCAAAGAGAGTGA-3´ ([Schulz et al. 2012]); Cyp1a2: forward-5´-ACATTCCCAAGGAGCGCTGTATCT-3´ and reverse-5´-GTCGATGGCCGAGTTGTTATTGGT-3´ ([Flaveny et al. 2010]); Cyp1b1: forward-5´-GTGGCTGCTCATCCTCTTTACC-3´ and reverse-5´-CCCACAACCTGGTCCAACTC-3´ ([Berge et al. 2004]); β-actin: forward-5´-ATGCTCCCCGGGCTGTAT-3´ and reverse-5´-CATAGGAGTCCTTCTGACCCATTC-3´ ([Schulz et al. 2012]). All primers were run through the National Center for Biotechnology Information Primer-BLAST database (http://www.ncbi.nlm.nih.gov/tools/primer-blast/) to confirm specificity and validate for optimal annealing temperature (60°C for all primers) and efficiency. The efficiency of all primer pairs was 98–102% (tested at 60°C). The following program was used for denaturation and amplification of cDNA: 3 min at 95°C, followed by 40 cycles of 15 sec at 95°C and 45 sec at 60°C. Gene expression for each sample was expressed as threshold cycle (Ct), normalized to the reference gene β-actin (ΔCt). We calculated fold induction relative to the control group.
Data analysis. We obtained concentration–response curves using a sigmoidal dose–response nonlinear regression curve fit with variable slope (GraphPad Prism 6.01; GraphPad Software Inc., San Diego, CA, USA):
In this Hill equation, y is the dependent variable (EROD activity or fold induction of mRNA levels), x the independent variable (administered or systemic dose), E0 is the estimated background response level, Emax is the maximum response, b is the estimated median effective concentration (EC50), and n is the shaping parameter of the Hill curve.
Using the congener-specific BMR20TCDD concentration, REPs were calculated relatively to TCDD: […]

On to `Clc1ccc(-c2cc(Cl)c(Cl)cc2Cl)cc1Cl` [PCB-118, 2,3´,4,4´,5-pentachlorobiphenyl], for which the Emax is less than 0.3%.
